According to PubChem BioAssay AID226 (DTP/NCI, 2004):
Several values for one entry are separate records, joined by “and”; a condition that tells them apart may be missing. Equal entries are not always repeated. Toxic doses and inconclusive results are not listed.

System: B6C3F1 mice, intracerebral ependymoblastoma, median survival T/C
Experiment: NCI In Vivo Anticancer Drug Screen. Data for tumor model Ependymoblastoma (intracerebral) in B6C3F1 mice
Settings: endpoint: median survival time, higher = longer survival
Protocol: The antitumor activity of compounds was measured in mice bearing transplantable tumors. Survival or tumor size were measured and the results are expressed as the measurement made in the treated group (T) divided by the measurement made in the vehicle treated control group (C). The tumor model used in this assay is Ependymoblastoma (intracerebral) in B6C3F1 mice

[1] = dose: 32.0 mg/kg/injection, schedule: Q01DX005 (ip), vehicle: saline with Tween-80
[2] = dose: 25.0 mg/kg/injection, schedule: Q01DX005 (ip), vehicle: saline
[3] = dose: 50.0 mg/kg/injection, schedule: Q01DX005 (ip), vehicle: saline
[4] = dose: 2.0 mg/kg/injection, schedule: Q01DX005 (ip), vehicle: saline
[5] = dose: 4.0 mg/kg/injection, schedule: Q01DX005 (ip), vehicle: saline
[6] = dose: 8.0 mg/kg/injection, schedule: Q01DX005 (ip), vehicle: saline

## C1CCC2C[N-]CCC2C1.C1CCC2C[N-]CCC2C1.C1CCC2C[N-]CCC2C1.C1CCC2C[N-]CCC2C1.[Cl][Rh][Cl] (stereo unspecified)
dose: 2.0 mg/kg/injection, schedule: Q01DX005 (ip), vehicle: dextrose
  T/C: 102 % of control
dose: 4.0 mg/kg/injection, schedule: Q01DX005 (ip), vehicle: dextrose
  T/C: 117 % of control

## O=C1C(=O)c2ccccc2C(O)=C1CC=C(Cl)Cl
dose: 10.0 mg/kg/injection, schedule: Q01DX005 (ip), vehicle: Klucel (hydroxypropylcellulose) (HPC)
  T/C: 100 % of control and 103 % of control
dose: 20.0 mg/kg/injection, schedule: Q01DX005 (ip), vehicle: Klucel (hydroxypropylcellulose) (HPC)
  T/C: 96 % of control and 98 % of control
dose: 40.0 mg/kg/injection, schedule: Q01DX005 (ip), vehicle: Klucel (hydroxypropylcellulose) (HPC)
  T/C: 103 % of control and 89 % of control
dose: 80.0 mg/kg/injection, schedule: Q01DX005 (ip), vehicle: Klucel (hydroxypropylcellulose) (HPC)
  T/C: 96 % of control and 103 % of control

## COC(=O)C(Cc1ccc(N(CCCl)CCCl)cc1)N=NNc1nc[nH]c1C(N)=O (stereo unspecified)
dose: 4.0 mg/kg/injection, schedule: Q01DX005 (ip), vehicle: saline with Tween-80
  T/C: 107 % of control
dose: 8.0 mg/kg/injection, schedule: Q01DX005 (ip), vehicle: saline with Tween-80
  T/C: 101 % of control and 112 % of control
dose: 16.0 mg/kg/injection, schedule: Q01DX005 (ip), vehicle: saline with Tween-80
  T/C: 104 % of control and 118 % of control
[1]
  T/C: 123 % of control

## CCSc1ncnc2c1ncn2C1OC(CO)C(O)C1O (stereo unspecified)
dose: 50.0 mg/kg/injection, schedule: Q01DX005 (ip), vehicle: saline with Tween-80
  T/C: 100 % of control and 106 % of control and 122 % of control
dose: 100.0 mg/kg/injection, schedule: Q01DX005 (ip), vehicle: saline with Tween-80
  T/C: 103 % of control and 106 % of control
dose: 200.0 mg/kg/injection, schedule: Q01DX005 (ip), vehicle: saline with Tween-80
  T/C: 107 % of control and 109 % of control

## C(COCCOCC1CO1)OCCOCC1CO1 (stereo unspecified)
[2]
  T/C: 100 % of control and 118 % of control
[3]
  T/C: 97 % of control and 121 % of control
dose: 100.0 mg/kg/injection, schedule: Q01DX005 (ip), vehicle: saline
  T/C: 97 % of control and 100 % of control
dose: 200.0 mg/kg/injection, schedule: Q01DX005 (ip), vehicle: saline
  T/C: 105 % of control

## O=c1[nH]c(=O)n(C2CC(O)C(CO)O2)cc1C(F)(F)F (stereo unspecified)
dose: 32.0 mg/kg/injection, schedule: Q01DX005 (ip), vehicle: Klucel (hydroxypropylcellulose) (HPC)
  T/C: 102 % of control
dose: 128.0 mg/kg/injection, schedule: Q01DX005 (ip), vehicle: Klucel (hydroxypropylcellulose) (HPC)
  T/C: 97 % of control

## c1ccc([C@H]2CN3CCSC3=N2)cc1
dose: 10.0 mg/kg/injection, schedule: Q01DX005 (ip), vehicle: saline
  T/C: 114 % of control
dose: 20.0 mg/kg/injection, schedule: Q01DX005 (ip), vehicle: saline
  T/C: 107 % of control
dose: 40.0 mg/kg/injection, schedule: Q01DX005 (ip), vehicle: saline
  T/C: 110 % of control

## N=c1ccn2c(n1)OC1C(O)C(CO)OC12 (stereo unspecified)
dose: 37.5 mg/kg/injection, schedule: Q01DX005 (ip), vehicle: saline
  T/C: 118 % of control
dose: 75.0 mg/kg/injection, schedule: Q01DX005 (ip), vehicle: saline
  T/C: 104 % of control
dose: 100.0 mg/kg/injection, schedule: Q01DX001 (ip), vehicle: saline
  T/C: 92 % of control and 94 % of control and 109 % of control
dose: 150.0 mg/kg/injection, schedule: Q01DX005 (ip), vehicle: saline
  T/C: 115 % of control
dose: 200.0 mg/kg/injection, schedule: Q01DX001 (ip), vehicle: saline
  T/C: 100 % of control (2×) and 101 % of control
dose: 400.0 mg/kg/injection, schedule: Q01DX001 (ip), vehicle: saline
  T/C: 95 % of control and 98 % of control and 112 % of control
dose: 800.0 mg/kg/injection, schedule: Q01DX001 (ip), vehicle: saline
  T/C: 106 % of control and 112 % of control and 123 % of control
dose: 1600.0 mg/kg/injection, schedule: Q01DX001 (ip), vehicle: saline
  T/C: 99 % of control and 105 % of control and 115 % of control

## Cc1cc2nc3ccc(N)cc3oc-2cc1=[N+](C)C
dose: 6.25 mg/kg/injection, schedule: Q01DX005 (ip), vehicle: saline
  T/C: 106 % of control
dose: 12.5 mg/kg/injection, schedule: Q01DX005 (ip), vehicle: saline
  T/C: 105 % of control
[2]
  T/C: 102 % of control
[3]
  T/C: 91 % of control

## COc1cccc2c1C(=O)c1c(O)c3c(c(O)c1C2=O)C[C@@](O)(/C(C)=N/NC(=O)c1ccccc1)C[C@@H]3OC1CC(N)C(O)C(C)O1 (stereo partly specified)
[4]
  T/C: 97 % of control
[5]
  T/C: 95 % of control
[6]
  T/C: 98 % of control

## COC(=O)c1ccc(N=NN(C)C)cc1
dose: 8.0 mg/kg/injection, schedule: Q01DX005 (ip), vehicle: saline + alcohol
  T/C: 114 % of control
dose: 16.0 mg/kg/injection, schedule: Q01DX005 (ip), vehicle: saline + alcohol
  T/C: 114 % of control
dose: 128.0 mg/kg/injection, schedule: Q01DX005 (ip), vehicle: saline + alcohol
  T/C: 160 % of control and 164 % of control
dose: 256.0 mg/kg/injection, schedule: Q01DX005 (ip), vehicle: saline + alcohol
  T/C: 100 % of control

## O=c1[nH]cc(F)c(=O)[nH]1
dose: 0.5 mg/kg/injection, schedule: Q01DX005 (ip), vehicle: saline
  T/C: 108 % of control
dose: 1.0 mg/kg/injection, schedule: Q01DX005 (ip), vehicle: saline
  T/C: 108 % of control
[4]
  T/C: 111 % of control
[5]
  T/C: 113 % of control
[6]
  T/C: 105 % of control
dose: 16.0 mg/kg/injection, schedule: Q01DX005 (ip), vehicle: saline
  T/C: 105 % of control
dose: 32.0 mg/kg/injection, schedule: Q01DX005 (ip), vehicle: saline
  T/C: 120 % of control

## C#CCN(C)/N=N/c1nc[nH]c1C(N)=O
[1]
  T/C: 150 % of control
dose: 128.0 mg/kg/injection, schedule: Q01DX005 (ip), vehicle: saline with Tween-80
  T/C: 157 % of control

## CN(C)C(=O)N(CCCl)N=O
dose: 5.0 mg/kg/injection, schedule: Q01DX001 (ip), vehicle: DMSO
  T/C: 106 % of control
dose: 8.3 mg/kg/injection, schedule: Q01DX001 (ip), vehicle: DMSO
  T/C: 112 % of control
dose: 12.5 mg/kg/injection, schedule: Q01DX001 (ip), vehicle: water
  T/C: 188 % of control
dose: 23.0 mg/kg/injection, schedule: Q01DX001 (ip), vehicle: DMSO
  T/C: 366 % of control
dose: 25.0 mg/kg/injection, schedule: Q01DX001 (ip), vehicle: water
  T/C: 332 % of control
dose: 38.4 mg/kg/injection, schedule: Q01DX001 (ip), vehicle: DMSO
  T/C: 365 % of control

## CCCC(=O)OCC1OC(n2cnc3c(=S)nc(N)[nH]c32)C(OC(=O)CCC)C1OC(=O)CCC (stereo unspecified)
dose: 3.12 mg/kg/injection, schedule: Q01DX005 (ip), vehicle: Klucel (hydroxypropylcellulose) (HPC)
  T/C: 102 % of control and 113 % of control
dose: 6.25 mg/kg/injection, schedule: Q01DX005 (ip), vehicle: Klucel (hydroxypropylcellulose) (HPC)
  T/C: 98 % of control and 104 % of control
dose: 12.5 mg/kg/injection, schedule: Q01DX005 (ip), vehicle: Klucel (hydroxypropylcellulose) (HPC)
  T/C: 106 % of control

## OC(C1CO1)C(O)C1CO1 (stereo unspecified)
dose: 0.25 mg/kg/injection, schedule: Q01DX005 (ip), vehicle: saline
  T/C: 112 % of control
dose: 0.5 mg/kg/injection, schedule: Q01DX005 (ip), vehicle: water
  T/C: 115 % of control
dose: 1.0 mg/kg/injection, schedule: Q01DX001 (ip), vehicle: saline
  T/C: 94 % of control and 121 % of control
dose: 1.0 mg/kg/injection, schedule: Q01DX005 (ip), vehicle: water
  T/C: 112 % of control
dose: 1.0 mg/kg/injection, schedule: Q#A X002 (ip), vehicle: water
  T/C: 105 % of control
dose: 2.0 mg/kg/injection, schedule: Q01DX001 (ip), vehicle: saline
  T/C: 113 % of control
dose: 2.0 mg/kg/injection, schedule: Q01DX001 (ip), vehicle: water
  T/C: 105 % of control and 110 % of control and 118 % of control
dose: 2.0 mg/kg/injection, schedule: Q01DX005 (ip), vehicle: water
  T/C: 124 % of control
dose: 2.0 mg/kg/injection, schedule: Q#A X002 (ip), vehicle: water
  T/C: 112 % of control
dose: 4.0 mg/kg/injection, schedule: Q01DX001 (ip), vehicle: saline
  T/C: 113 % of control
dose: 4.0 mg/kg/injection, schedule: Q01DX001 (ip), vehicle: water
  T/C: 116 % of control and 117 % of control
dose: 4.0 mg/kg/injection, schedule: Q01DX005 (ip), vehicle: water
  T/C: 181 % of control
dose: 8.0 mg/kg/injection, schedule: Q01DX001 (ip), vehicle: saline
  T/C: 113 % of control
dose: 8.0 mg/kg/injection, schedule: Q01DX001 (ip), vehicle: water
  T/C: 151 % of control
dose: 8.0 mg/kg/injection, schedule: Q#A X002 (ip), vehicle: water
  T/C: 175 % of control
dose: 16.0 mg/kg/injection, schedule: Q01DX001 (ip), vehicle: saline
  T/C: 150 % of control and 166 % of control
dose: 16.0 mg/kg/injection, schedule: Q01DX001 (ip), vehicle: water
  T/C: 175 % of control
